Tested on: depression with gastro-intestinal over-growth with Aspergillus and Candida yeasts
Test: Antidepressive effectiveness (proband tests), multi-step method
Assay type: in vivo, human
Parameters: key: − negative; + positive
Conditions: Level 0 antidepressants (Seroxat); Level 1 1 g/day oral 4 weeks; Level 2 2 g daily oral 4 weeks after level 1
Description: Antidepressive effectiveness (2 proband tests/female 1/male 1)
Diseases such as depressions can often be treated in an exclusively symptomatic way with psychopharmaceuticals. However, mycoses/mycotoxins may be the initial cause of such diseases. The object was to eliminate the gastro-intestinal over-growth with Aspergillus and Candida yeasts using BHQ (see also Patent Application EP 00 124 497), and to apply BHQ R6 regenerative agent in a multi-step method.
Level 0: Depression conservatively treated with antidepressants (Seroxat®). The general state of health was subjectively reported as non-satisfactory; in part, depression attacks occurred at different times of day (e.g., in the evening), so that the dosage was increased. The microbiological detection of Candida spec. and Aspergillus spec. was positive. The probands complained about a high weight increase (“spongy feeling”).
Level 1: For 4 weeks, BHQ “flavor-containing medicament” was administered orally once a day for the decontamination of the mycosis and/or any mycotoxins present (1 g/day).
Level 2: As a next step after level 1, BHQ R6 regenerative agent (2 g daily) was administered orally for 4 weeks.

Fc1ccc([C@@H]2CCNC[C@H]2COc2ccc3c(c2)OCO3)cc1 [Seroxat]
General health: −
Weight increase: +
microbiological gastro-intestinal detection: Candida spec. Aspergillus spec.: +
part. status: +

From patent US20040076614A1, “Symbiotic regenerative agent” (priority 2001, published 2004)
